Like-named read-outs stand apart in the source and are kept apart here. *1 amine or outer side, *2 acyl side, *3 side chain or, on linkers, in order; H or OH if unused. Where a SMILES comes first, the peptide text is derived from it. Bridges are numbered along the chain shown (N, C = ends). [ ]: non-standard residue; d: D form. Acbc(trans-1,3) = O=C([C@H]1C[C@H](N[*:1])C1)[*:2]; Acbc(cis-1,3) = O=C([C@H]1C[C@@H](N[*:1])C1)[*:2]; X1 = O=C([C@@H]1CCC[C@@H]1N[*:1])[*:2]; Orn = NCCC[C@H](N)C(=O)O
Columns and labels:
[1] = Serum stability assay (LC/MS); type: in vitro ADME, human; details: for half-life: human
Procedure: (§1) Binding affinities of IA1 and IA2 against IFNGR1 were evaluated by surface plasmon resonance (SPR) (Table 1 and SI Figure S6A). […] To investigate the contribution of the N-terminal [yVPβ^1RR] motif and β^1 residue in IA1, three scrambled peptides IA1s1–3 and a variant IA1β^14A were synthesized and evaluated. […] We next evaluated inhibitory activities of IA1 and IA2 against the ligand–receptor PPI between IFN-γ and IFNGR1 using AlphaLISA (Table 1 and SI Figure S7).[37] […] We also determined the serum half-lives of IA1 and IA2, considering peptidase resistance as an important factor for therapeutic peptides.[24] A sample peptide and a peptidase-resistant internal standard peptide were coincubated in human serum at 37 °C, and the relative amount of the remaining sample peptide was estimated by LC/MS. […]
10–200 μM synthetic peptide and 5 μM serum-resistant internal standard peptide consisting only of D-amino acids (NH2-PEG5-wstndwstnd-PEG5-CONH2)3 were mixed and incubated in human serum (Cosmo Bio, 12181201) at 37 °C for up to 120 h. At each time point, 4 μL of the mixture was removed and quenched by adding 12 μl methanol. Following centrifugation (15,000 g, 4 °C, 5 min), 10 μL of the supernatant was mixed with 40 μl of 1% (v/v) TFA. Following centrifugation (15,000 g, 4 °C, 5 min), the supernatant was collected for LC/MS analysis, which used a reverse-phase column (ACQUITY UPLC BEH C18, 1.7 μm, 2.1 × 150 mm; Waters) and a Xevo G2-XS QTof system (Waters) with a linear gradient from 1% B to 61% B. Buffer A was water with 0.1% (v/v) formic acid; buffer B was acetonitrile with 0.1% (v/v) formic acid. The percentages of remaining peptides were determined by the peak area integration of the chromatograms. For tandem mass spectrometry, MS/MS spectra were acquired with a 0.2 s scan time, with 10−30 eV collision energy. The obtained LC/MS data was analyzed using MassLynx 4.1 (Waters). […]

Fc-tagged human IFNGR1 = target: T1, Fc-tagged human IFNGR1 (Homo sapiens, UniProt P15260); assay: Binding kinetics and affinity to IFNGR1 by surface plasmon resonance (SPR); details: SPR, 25 °C, 1:1 binding model; for Kd: read-out: KD; for kon: single-cycle kinetics, read-out: ka
T1 construct: purchased ACROBiosystems
T1 sequence (P15260 18-489): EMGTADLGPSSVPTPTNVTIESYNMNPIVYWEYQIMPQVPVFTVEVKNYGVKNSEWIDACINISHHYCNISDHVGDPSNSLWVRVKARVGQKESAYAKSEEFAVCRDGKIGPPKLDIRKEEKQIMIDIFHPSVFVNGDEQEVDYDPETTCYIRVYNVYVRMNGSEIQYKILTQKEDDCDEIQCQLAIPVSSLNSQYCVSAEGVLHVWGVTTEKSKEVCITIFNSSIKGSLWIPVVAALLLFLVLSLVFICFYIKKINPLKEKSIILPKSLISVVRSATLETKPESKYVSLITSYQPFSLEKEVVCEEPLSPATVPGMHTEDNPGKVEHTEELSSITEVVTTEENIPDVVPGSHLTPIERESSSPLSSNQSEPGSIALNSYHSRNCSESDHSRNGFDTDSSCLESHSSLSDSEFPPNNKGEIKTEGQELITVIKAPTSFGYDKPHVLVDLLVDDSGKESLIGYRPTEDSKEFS
Procedure: as §1
Evaluation of binding affinity of peptides by surface plasmon resonance The binding affinities of selected peptides and IFNGR1 were analyzed by surface plasmon resonance (SPR) using a Biacore T200 instrument (Cytiva) at 25 °C with the following running buffer: 10 mM Tris-HCl (pH 8.0), 150 mM NaCl, 0.05% (v/v) Tween 20 , and 0.1% (v/v) DMSO. Fc-tagged IFNGR1 was immobilized on a series S sensor chip protein G (Cytiva) to a surface density of 1,200–1,600 response units following the immobilization protocols provided by Cytiva. The kinetic constants were determined by a single-cycle kinetics method by the injection of five different concentrations (twofold dilution series) of each peptide at a flow rate of 30 μL/min. The resulting sensorgrams were fitted to the standard 1:1 interaction model and analyzed using Biacore evaluation software. […]

[2] = target: T2, IFN-γ/IFNGR1 protein–protein interaction (Homo sapiens, UniProt P15260); assay: IFNGR1 inhibition assay using AlphaLISA; type: biochemical; details: four-parameter dose–response fit, n = 3
T2 construct: purchased ACROBiosystems
T2 sequence (P15260 18-245 limits assumed): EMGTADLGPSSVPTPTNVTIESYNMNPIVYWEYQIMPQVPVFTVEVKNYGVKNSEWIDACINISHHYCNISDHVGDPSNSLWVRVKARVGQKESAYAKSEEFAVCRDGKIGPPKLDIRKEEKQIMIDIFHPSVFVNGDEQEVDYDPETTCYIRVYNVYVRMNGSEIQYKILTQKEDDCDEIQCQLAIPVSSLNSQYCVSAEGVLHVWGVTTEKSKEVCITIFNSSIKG
Procedure: IFNGR1 inhibition assay using AlphaLISA
The inhibitory activity of peptides against IFN-γ/IFNGR1 protein–protein interaction (PPI) was determined by AlphaLISA.5 Peptides, proteins, and beads were diluted in AlphaLISA immunoassay buffer (PerkinElmer, AL000C). 3.6 μL of 5 nM Fc-tagged IFNGR1 and 3.6 μL of synthetic peptides were mixed in AlphaPlate-384 Shallow Well (PerkinElmer) and preincubated at 25 °C for 10 min. 3.6 μL of 15 nM biotin-tagged IFN-γ was then added to the mix and incubated at 25 °C for 20 min. 3.6 μL each human IgG acceptor beads (PerkinElmer) and streptavidin donor beads (PerkinElmer) were added to the above mix and incubated at 25 °C for 30 min in dark place. Emission at 615 nm was measured […]
by EnSpire Multimode Plate Reader (PerkinElmer). The fraction of bound IFN-γ/IFNGR1 was calculated by the intensity of emission in the presence of peptide divided by that in the absence of […]
peptide. […]
Puromycin. Normocin, Blasticidin, Zeocin, and Puromycin were excluded when conducting the experiments. To evaluate the cellular activity of peptides, peptide mixtures were added to 50,000 cells/well in a flat-bottom 96-well plate and pre-incubated for 30 min at 37 °C before stimulation.
Subsequently, 1 ng/mL of recombinant IFN-γ (InvivoGen) was added to each well in a final reaction volume of 200 μL, followed by incubation for 20 h at 37 °C. 20 μL of supernatants from the induced cells was added to 180 μL Q U A N T I-Blue TM solution (InvivoGen). After further incubation for 3 h at 37 °C, the expression levels of the secreted embryonic alkaline phosphatase (SEAP) were determined by reading the O.D. at 650 nm on a Tecan M1000 PRO microplate reader (Tecan Group) and normalized to the non-treated well. IC50 value was analyzed by a normalized dose-response curve fitting by using GraphPad Prism 9.
HEK-DualTM IFN-γ cells were used for the cell viability assay. 10,000 cells/well were added to each well in a flat-bottom 96-well plate. After 24 h, peptide mixtures were added to each well in a final volume of 100 μL. After further incubation for 24 h, 10 μL CCK-8 reagent (Dojindo) was added to […]

[3] = human serum, 37 °C, LC/MS, relative to internal standard peptide, n = 3, read-out: half-life in human serum (t1/2) (converted)

Row | half-life [1, 3] [h] | Kd (Fc-tagged human IFNGR1) [µM] | kon (Fc-tagged human IFNGR1) [M⁻¹ s⁻¹] | IC50 [2] [µM] | half-life ([1]; serum, half-life in human serum (t1/2)) [h] | half-life in human serum (t1/2) ([1]; human serum, 37 °C, LC/MS, relative to internal standard peptide, n = 3) [h] | SMILES
1 | > 2.6 | 0.15 ± 0.04 | 120000 ± 50000 | 0.33 ± 0.02 |  |  | CC(C)[C@@H]1NC(=O)[C@@H](Cc2ccc(O)cc2)NC(=O)CSC[C@H](C(N)=O)NC(=O)[C@H](CC(N)=O)NC(=O)[C@H](CO)NC(=O)[C@H](CCCNC(=N)N)NC(=O)[C@H](CO)NC(=O)[C@H]2C[C@@H](C2)NC(=O)[C@H](CC(N)=O)NC(=O)[C@H]([C@@H](C)O)NC(=O)[C@H](Cc2c[nH]cn2)NC(=O)[C@H](CCCNC(=N)N)NC(=O)[C@H](CCCNC(=N)N)NC(=O)[C@@H]2CCC[C@@H]2NC(=O)[C@@H]2CCCN2C1=O [IA2, ^AcyVPβ^1RRHTNγ^2SRSNc-NH2] ({CH2CO}-[dY]VP[X1]RRHTN[Acbc(trans-1,3)]SRSN[dC]-NH2; thioether N-15)
2 |  | 0.011 ± 0.003 | 1.4e+06 ± 900000 | 0.017 ± 0.003 | 33 ± 1 |  | CC(C)[C@@H]1NC(=O)[C@@H](Cc2ccc(O)cc2)NC(=O)CSC[C@H](C(N)=O)NC(=O)[C@H](CCCN)NC(=O)[C@H](CO)NC(=O)[C@H](CCCN)NC(=O)[C@H](Cc2c[nH]cn2)NC(=O)CNC(=O)[C@H]2C[C@H](C2)NC(=O)[C@H](Cc2c[nH]cn2)NC(=O)[C@H](CC(N)=O)NC(=O)[C@H](CCCNC(=N)N)NC(=O)[C@H](CCCNC(=N)N)NC(=O)[C@@H]2CCC[C@@H]2NC(=O)[C@H](C)NC1=O [IB1Orn, ^AcyVAβ^1RRNHγ^1GHOSOc-NH2] ({CH2CO}-[dY]VA[X1]RRNH[Acbc(cis-1,3)]GH[Orn]S[Orn][dC]-NH2; thioether N-15)
3 | 0.17 ± 0.01 | 0.0095 ± 0.004 | 110000 ± 20000 | 0.011 ± 0.004 |  |  | CC(C)[C@@H]1NC(=O)[C@@H](Cc2ccc(O)cc2)NC(=O)CSC[C@H](C(N)=O)NC(=O)[C@H](CCCNC(=N)N)NC(=O)[C@H](CO)NC(=O)[C@H](CCCNC(=N)N)NC(=O)[C@H](Cc2c[nH]cn2)NC(=O)CNC(=O)[C@H](C)NC(=O)[C@H](Cc2c[nH]cn2)NC(=O)[C@H](CC(N)=O)NC(=O)[C@H](CCCNC(=N)N)NC(=O)[C@H](CCCNC(=N)N)NC(=O)[C@@H]2CCC[C@@H]2NC(=O)[C@H](C)NC1=O [IB1γ^19A, ^AcyVAβ^1RRNHA GHRSRc-NH2] ({CH2CO}-[dY]VA[X1]RRNHAGHRSR[dC]-NH2; thioether N-15)
4 | 0.77 ± 0.02 | 0.047 ± 0.015 | 250000 ± 250000 | 0.55 ± 0.03 |  |  | CC(C)[C@@H]1NC(=O)[C@@H](Cc2ccc(O)cc2)NC(=O)CSC[C@H](C(N)=O)NC(=O)[C@H](CCCNC(=N)N)NC(=O)[C@H](CO)NC(=O)[C@H](CCCNC(=N)N)NC(=O)[C@H](Cc2c[nH]cn2)NC(=O)CNC(=O)[C@H]2C[C@@H](C2)NC(=O)[C@H](Cc2c[nH]cn2)NC(=O)[C@H](CC(N)=O)NC(=O)[C@H](CCCNC(=N)N)NC(=O)[C@H](CCCNC(=N)N)NC(=O)[C@@H]2CCC[C@@H]2NC(=O)[C@H](C)NC1=O [IB1γ^19γ^2, ^AcyVAβ^1RRNHγ^2GHRSRc-NH2] ({CH2CO}-[dY]VA[X1]RRNH[Acbc(trans-1,3)]GHRSR[dC]-NH2; thioether N-15)
5 | < 1.3 | 0.031 ± 0.008 | 200000 ± 90000 | 0.079 ± 0.011 |  | 1.3 ± 0.1 | CC(C)[C@@H]1NC(=O)[C@@H](Cc2ccc(O)cc2)NC(=O)CSC[C@H](C(N)=O)NC(=O)[C@H](C)NC(=O)[C@H](Cc2c[nH]cn2)NC(=O)[C@H](CCCNC(=N)N)NC(=O)[C@H](CCCNC(=N)N)NC(=O)CNC(=O)[C@H]2C[C@H](C2)NC(=O)[C@H](Cc2c[nH]cn2)NC(=O)[C@H](CC(N)=O)NC(=O)[C@H](CCCNC(=N)N)NC(=O)[C@H](CCCNC(=N)N)NC(=O)[C@@H]2CCC[C@@H]2NC(=O)[C@H](C)NC1=O [IB2, ^AcyVAβ^1RRNHγ^1GRRHAc-NH2] ({CH2CO}-[dY]VA[X1]RRNH[Acbc(cis-1,3)]GRRHA[dC]-NH2; thioether N-15)

Source: PMC11229689, “In Vitro Selection of Macrocyclic L-α/D-α/β/γ-Hybrid Peptides Targeting IFN-γ/IFNGR1 Protein–Protein Interaction” (Journal of the American Chemical Society, 2024)
